Where two headings read alike, the source gives them in different places.
Assays:
Test in all cases: biochemical
Parameters in all cases: Reaction Biology 371-kinase panel at Km ATP, per cent enzyme activity relative to DMSO, single dose in duplicate
[1] = molecular target: ARK5/NUAK1 (Homo sapiens, UniProt O60285); conditions: duplicate measurements, Km ATP; read-out: % Enzyme Activity (relative to DMSO controls) / TP-0005801 (0.3µM) / Data 1
In short: (§1)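 Compound screened at 300 nM in vitro across a 371-kinase panel. Enzyme activity expressed as % of DMSO controls. IC50 values came from sigmoidal variable-slope dose-response fits with the bottom fixed at 0.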

[2] = molecular target: EPHB3 (Homo sapiens, UniProt P54753); conditions: duplicate measurements, Km ATP
In short: as §1

[3] = molecular target: KDR/VEGFR2 (Homo sapiens, UniProt P35968); conditions: duplicate measurements, Km ATP
Sequence of KDR/VEGFR2 (P35968 whole entry): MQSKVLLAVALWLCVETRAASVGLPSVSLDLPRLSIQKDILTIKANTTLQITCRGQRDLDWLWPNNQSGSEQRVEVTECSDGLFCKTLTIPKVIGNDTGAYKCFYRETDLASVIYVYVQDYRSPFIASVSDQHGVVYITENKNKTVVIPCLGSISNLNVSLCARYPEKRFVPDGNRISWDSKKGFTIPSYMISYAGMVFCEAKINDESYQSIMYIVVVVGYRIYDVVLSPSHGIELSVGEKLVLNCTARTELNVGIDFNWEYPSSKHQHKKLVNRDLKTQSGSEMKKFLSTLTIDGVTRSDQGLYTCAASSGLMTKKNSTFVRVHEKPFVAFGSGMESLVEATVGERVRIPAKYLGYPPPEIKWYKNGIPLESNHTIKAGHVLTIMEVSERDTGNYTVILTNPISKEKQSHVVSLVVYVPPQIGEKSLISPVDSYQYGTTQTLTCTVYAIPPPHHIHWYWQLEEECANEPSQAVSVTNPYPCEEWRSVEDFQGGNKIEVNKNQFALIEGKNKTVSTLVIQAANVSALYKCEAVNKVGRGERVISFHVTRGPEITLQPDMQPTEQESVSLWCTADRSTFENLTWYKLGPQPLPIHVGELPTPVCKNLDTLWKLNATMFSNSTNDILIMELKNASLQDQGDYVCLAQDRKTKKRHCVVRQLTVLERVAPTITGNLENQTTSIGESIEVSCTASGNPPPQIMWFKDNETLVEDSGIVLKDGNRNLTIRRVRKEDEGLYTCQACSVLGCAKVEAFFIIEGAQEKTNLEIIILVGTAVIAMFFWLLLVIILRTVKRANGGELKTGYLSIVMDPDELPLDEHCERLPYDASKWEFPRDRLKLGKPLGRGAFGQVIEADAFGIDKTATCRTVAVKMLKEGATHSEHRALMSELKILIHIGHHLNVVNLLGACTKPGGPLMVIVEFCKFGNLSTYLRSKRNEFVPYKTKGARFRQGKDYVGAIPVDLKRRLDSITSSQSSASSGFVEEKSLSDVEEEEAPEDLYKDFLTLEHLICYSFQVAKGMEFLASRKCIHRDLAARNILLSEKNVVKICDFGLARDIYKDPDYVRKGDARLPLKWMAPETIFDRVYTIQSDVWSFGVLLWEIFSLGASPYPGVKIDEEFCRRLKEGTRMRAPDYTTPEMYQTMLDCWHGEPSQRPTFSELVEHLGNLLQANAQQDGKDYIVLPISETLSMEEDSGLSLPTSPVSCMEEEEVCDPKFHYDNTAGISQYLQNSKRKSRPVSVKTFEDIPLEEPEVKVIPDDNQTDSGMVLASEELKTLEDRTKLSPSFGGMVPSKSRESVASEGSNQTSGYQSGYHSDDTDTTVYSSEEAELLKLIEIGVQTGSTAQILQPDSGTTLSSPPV
In short: as §1

[4] = molecular target: BMX/ETK (Homo sapiens, UniProt P51813); conditions: duplicate measurements, Km ATP
In short: as §1

[5] = molecular target: EPHA7 (Homo sapiens, UniProt Q15375); conditions: duplicate measurements, Km ATP
In short: as §1

[6] = molecular target: LYN (Homo sapiens, UniProt P07948); conditions: duplicate measurements, Km ATP
In short: as §1

[7] = molecular target: MARK2/PAR-1Ba (Homo sapiens, UniProt Q7KZI7); conditions: duplicate measurements, Km ATP
In short: as §1

[8] = molecular target: T1, LKB1 (Homo sapiens, UniProt Q15831); conditions: duplicate measurements, Km ATP
T1 construct: gene STK11
T1 sequence (Q15831 whole entry): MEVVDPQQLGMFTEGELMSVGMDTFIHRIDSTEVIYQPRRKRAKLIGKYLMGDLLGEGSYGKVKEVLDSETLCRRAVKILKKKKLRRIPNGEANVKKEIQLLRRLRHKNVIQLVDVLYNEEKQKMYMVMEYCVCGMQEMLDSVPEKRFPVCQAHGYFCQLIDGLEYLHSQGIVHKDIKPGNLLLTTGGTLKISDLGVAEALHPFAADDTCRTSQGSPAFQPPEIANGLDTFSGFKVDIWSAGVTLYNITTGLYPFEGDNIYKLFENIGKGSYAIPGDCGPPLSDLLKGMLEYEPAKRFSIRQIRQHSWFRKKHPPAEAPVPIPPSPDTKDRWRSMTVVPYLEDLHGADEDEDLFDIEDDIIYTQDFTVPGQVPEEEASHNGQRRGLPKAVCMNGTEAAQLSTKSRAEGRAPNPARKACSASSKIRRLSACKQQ
In short: as §1

[9] = molecular target: P38a/MAPK14 (Homo sapiens, UniProt Q16539); conditions: duplicate measurements, Km ATP
Sequence of P38a/MAPK14 (Q16539 whole entry): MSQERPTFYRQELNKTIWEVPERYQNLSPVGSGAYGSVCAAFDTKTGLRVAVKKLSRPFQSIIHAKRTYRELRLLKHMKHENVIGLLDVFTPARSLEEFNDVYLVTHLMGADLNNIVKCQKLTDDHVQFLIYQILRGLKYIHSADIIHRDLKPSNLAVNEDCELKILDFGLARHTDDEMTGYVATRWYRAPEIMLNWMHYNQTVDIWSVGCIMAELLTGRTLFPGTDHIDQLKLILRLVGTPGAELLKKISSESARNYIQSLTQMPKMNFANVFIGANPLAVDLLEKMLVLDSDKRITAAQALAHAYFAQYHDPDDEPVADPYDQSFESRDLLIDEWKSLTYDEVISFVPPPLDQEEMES
In short: as §1

[10] = molecular target: T2, PKCa (Homo sapiens, UniProt P17252); conditions: duplicate measurements, Km ATP
T2 construct: gene PRKCA
In short: as §1

[11] = molecular target: PAK1 (Homo sapiens, UniProt Q13153); conditions: duplicate measurements, Km ATP
In short: as §1

[12] = molecular target: CDK2/cyclin A (Homo sapiens, UniProt P24941); conditions: duplicate measurements, Km ATP
In short: as §1

[13] = molecular target: MLK1/MAP3K9 (Homo sapiens, UniProt P80192); conditions: duplicate measurements, Km ATP
In short: as §1

[14] = molecular target: EPHA2 (Homo sapiens, UniProt P29317); conditions: duplicate measurements, Km ATP
Sequence of EPHA2 (P29317 whole entry): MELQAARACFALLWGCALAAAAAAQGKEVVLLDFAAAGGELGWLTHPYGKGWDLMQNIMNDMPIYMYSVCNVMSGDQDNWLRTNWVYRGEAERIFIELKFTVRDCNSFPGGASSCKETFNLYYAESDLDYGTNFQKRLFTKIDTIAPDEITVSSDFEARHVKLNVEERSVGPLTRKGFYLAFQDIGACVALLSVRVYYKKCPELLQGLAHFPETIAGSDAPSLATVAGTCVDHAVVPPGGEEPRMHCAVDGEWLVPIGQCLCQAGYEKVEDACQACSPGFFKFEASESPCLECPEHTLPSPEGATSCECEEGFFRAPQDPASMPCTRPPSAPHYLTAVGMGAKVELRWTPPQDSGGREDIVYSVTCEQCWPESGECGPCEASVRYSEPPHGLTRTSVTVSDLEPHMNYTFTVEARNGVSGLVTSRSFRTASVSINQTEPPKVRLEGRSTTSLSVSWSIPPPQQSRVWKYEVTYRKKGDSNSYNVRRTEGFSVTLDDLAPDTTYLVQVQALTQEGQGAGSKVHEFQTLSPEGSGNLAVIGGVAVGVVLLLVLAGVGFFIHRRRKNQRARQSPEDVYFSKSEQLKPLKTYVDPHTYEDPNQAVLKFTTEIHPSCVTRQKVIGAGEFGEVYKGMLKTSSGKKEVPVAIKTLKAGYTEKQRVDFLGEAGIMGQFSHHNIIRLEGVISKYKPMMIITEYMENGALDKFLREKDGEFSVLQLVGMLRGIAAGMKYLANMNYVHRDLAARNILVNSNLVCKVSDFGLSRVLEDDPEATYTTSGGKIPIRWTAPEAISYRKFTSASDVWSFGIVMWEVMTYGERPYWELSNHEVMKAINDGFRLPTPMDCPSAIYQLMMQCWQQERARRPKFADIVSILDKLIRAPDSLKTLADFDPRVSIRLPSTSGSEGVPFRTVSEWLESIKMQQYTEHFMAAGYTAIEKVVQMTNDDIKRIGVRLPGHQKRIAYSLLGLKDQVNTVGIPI
In short: as §1

[15] = molecular target: PAK6 (Homo sapiens, UniProt Q9NQU5); conditions: duplicate measurements, Km ATP
In short: as §1

[16] = molecular target: GRK6 (Homo sapiens, UniProt P43250); conditions: duplicate measurements, Km ATP
In short: as §1

[17] = molecular target: JAK3 (Homo sapiens, UniProt P52333); conditions: duplicate measurements, Km ATP
In short: as §1

[18] = molecular target: MRCKb/CDC42BPB (Homo sapiens, UniProt Q9Y5S2); conditions: duplicate measurements, Km ATP
In short: as §1

[19] = molecular target: MAPKAPK2 (Homo sapiens, UniProt P49137); conditions: duplicate measurements, Km ATP
Sequence of MAPKAPK2 (P49137 whole entry): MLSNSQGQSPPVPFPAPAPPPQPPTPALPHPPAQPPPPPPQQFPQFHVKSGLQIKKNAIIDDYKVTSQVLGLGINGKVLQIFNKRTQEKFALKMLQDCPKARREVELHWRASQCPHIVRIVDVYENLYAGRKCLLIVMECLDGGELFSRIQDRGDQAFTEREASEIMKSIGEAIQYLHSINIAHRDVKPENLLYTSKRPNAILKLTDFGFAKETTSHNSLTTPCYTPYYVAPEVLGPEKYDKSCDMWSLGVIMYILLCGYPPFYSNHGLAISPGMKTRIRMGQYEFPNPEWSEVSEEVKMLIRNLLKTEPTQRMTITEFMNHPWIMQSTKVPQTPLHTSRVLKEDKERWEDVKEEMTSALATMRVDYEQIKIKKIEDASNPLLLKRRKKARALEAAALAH
In short: as §1

[20] = molecular target: Haspin (Homo sapiens, UniProt Q8TF76); conditions: duplicate measurements, Km ATP
Sequence of Haspin (Q8TF76 whole entry): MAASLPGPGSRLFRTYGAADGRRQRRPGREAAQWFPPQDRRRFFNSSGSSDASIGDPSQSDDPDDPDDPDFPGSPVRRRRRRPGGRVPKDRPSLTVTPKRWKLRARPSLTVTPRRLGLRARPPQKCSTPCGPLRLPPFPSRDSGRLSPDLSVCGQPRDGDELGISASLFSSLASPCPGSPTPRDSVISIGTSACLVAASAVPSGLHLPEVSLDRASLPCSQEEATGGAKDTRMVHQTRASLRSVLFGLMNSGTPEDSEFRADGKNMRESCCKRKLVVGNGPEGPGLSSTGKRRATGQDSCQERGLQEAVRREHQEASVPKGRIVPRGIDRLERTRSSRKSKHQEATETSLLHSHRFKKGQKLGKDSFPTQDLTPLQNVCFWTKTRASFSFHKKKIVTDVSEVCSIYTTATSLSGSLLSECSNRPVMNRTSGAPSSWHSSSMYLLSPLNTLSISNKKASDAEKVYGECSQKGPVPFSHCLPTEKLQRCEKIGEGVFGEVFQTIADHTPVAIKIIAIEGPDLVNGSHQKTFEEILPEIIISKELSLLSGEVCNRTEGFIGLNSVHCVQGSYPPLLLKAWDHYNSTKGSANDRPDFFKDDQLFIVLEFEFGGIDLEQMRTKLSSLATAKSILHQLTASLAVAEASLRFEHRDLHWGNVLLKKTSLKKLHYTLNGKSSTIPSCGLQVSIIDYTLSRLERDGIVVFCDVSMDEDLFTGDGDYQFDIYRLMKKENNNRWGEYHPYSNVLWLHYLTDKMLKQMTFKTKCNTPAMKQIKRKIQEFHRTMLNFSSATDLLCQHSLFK
In short: as §1

[21] = read-out: % Enzyme Activity (relative to DMSO controls) / TP-0005801 (0.3µM) / Data 1
[22] = read-out: % Enzyme Activity (relative to DMSO controls) / TP-0005801 (0.3µM) / Data 2

remaining activity at 0.3 µM [1]: 14.2%
remaining activity at 0.3 µM [2, 21]: 104%
remaining activity at 0.3 µM [2, 22]: 102%
remaining activity at 0.3 µM [3, 21]: 93.5%
remaining activity at 0.3 µM [3, 22]: 93.2%
remaining activity at 0.3 µM [4, 21]: 115%
remaining activity at 0.3 µM [4, 22]: 114%
remaining activity at 0.3 µM [5, 21]: 95.2%
remaining activity at 0.3 µM [5, 22]: 94%
remaining activity at 0.3 µM [6, 21]: 70.1%
remaining activity at 0.3 µM [6, 22]: 69.8%
remaining activity at 0.3 µM [7, 21]: 93.2%
remaining activity at 0.3 µM [7, 22]: 92.1%
remaining activity at 0.3 µM [8, 21]: 107%
remaining activity at 0.3 µM [8, 22]: 105%
remaining activity at 0.3 µM [9, 21]: 89%
remaining activity at 0.3 µM [9, 22]: 88.1%
remaining activity at 0.3 µM [10, 21]: 98.6%
remaining activity at 0.3 µM [10, 22]: 98%
remaining activity at 0.3 µM [11, 21]: 91.5%
remaining activity at 0.3 µM [11, 22]: 86.4%
remaining activity at 0.3 µM [12, 21]: 90.8%
remaining activity at 0.3 µM [12, 22]: 87.6%
remaining activity at 0.3 µM [13, 21]: 77.2%
remaining activity at 0.3 µM [13, 22]: 76.6%
remaining activity at 0.3 µM [14, 21]: 98.3%
remaining activity at 0.3 µM [14, 22]: 95.9%
remaining activity at 0.3 µM [15, 21]: 107%
remaining activity at 0.3 µM [15, 22]: 105%
remaining activity at 0.3 µM [16, 21]: 86.9%
remaining activity at 0.3 µM [16, 22]: 83.9%
remaining activity at 0.3 µM [17, 21]: 29.3%
remaining activity at 0.3 µM [17, 22]: 28.7%
remaining activity at 0.3 µM [18, 21]: 99.2%
remaining activity at 0.3 µM [18, 22]: 98%
remaining activity at 0.3 µM [19, 21]: 99%
remaining activity at 0.3 µM [19, 22]: 96.4%
remaining activity at 0.3 µM [20, 21]: 88.2%
remaining activity at 0.3 µM [20, 22]: 86.9%
SMILES: COc1cc(N2CCN(C)CC2)c(C)cc1Nc1ncc(Br)c(Nc2cccnc2N(C)C)n1 [TP-5801]

— paper PMC8429728, “TNK1 is a ubiquitin-binding and 14-3-3-regulated kinase that can be targeted to block tumor growth” (Nature Communications, 2021)
